Results reported in patent US20230310540A1, “PEPTIDE COMPOSITIONS AND METHODS OF USE THEREOF” (priority 2020, published 2023).
Values after ≈ are worked out from the molar mass of the structure shown. Square brackets hold non-standard residues; d marks the D form. Peptide text beside a SMILES is read from it. d(hArg) = N=C(N)NCCCC[C@@H](N)C(=O)O

How the values were obtained:
Format in all cases: cell-based
[1] = system: S. aureus; details: for MIC in Broth Dilution, S. Aureus, RBC −: absence of RBC; for MIC in Broth Dilution, S. Aureus, RBC − / MIC in Broth Dilution, S. Aureus, RBC +: Table 3; for MIC, S. aureus, No RBC / MIC, S. aureus, 10^9 cells/ml RBC: Table 2; for MIC in Broth Dilution, S. Aureus, RBC +: presence of 1×10^9 human RBC/ml; for MIC, S. aureus, 10^9 cells/ml RBC: with 10^9 human RBC/ml
Description: (§1) Peptide variants of D-CONGA (SEQ ID NO: 1) were tested for activity against E. coli, K. pneumoniae, and S. aureus. Minimum Inhibitory Concentrations (MIC) were measured in 96-well plates by broth dilution. Peptides were serially diluted in buffer or in buffer containing 1×10^9 human RBC/ml. Following 1 hr. incubation, bacteria in growth media were added and the plates were incubated overnight at 37° C. Sterilized, wells were identified to determine MIC. Hemolysis was measured by incubating 1×10^8 human RBCs with serially diluted peptide for 30 minutes followed by centrifugation of the cells and measurements of the released hemoglobin in the supernatant by absorbance at 410 nm. The value for 100% hemolysis was established by treatment with the detergent Triton-X100. Toxicity was measured by incubating serially diluted peptide with WI38 human fibroblast cells in the presence of SYTOX Green, a DNA binding dye that reports on cell death by membrane permeabilization. The peptide concentration that gives 50% cytotoxicity by relative SYTOX Green fluorescence, is denoted EC50.
(§2) Antimicrobial peptides and conventional antibiotics were prepared at 5-times the final concentration needed in 0.025% acetic acid. The antibiotics were serially diluted by a factor of 2:3 horizontally across 96-well plates from Corning, 25 μL per well. One column was reserved for controls. For the assays performed in the presence of RBC, type O+ human RBCs at 0 or 2.5×10^9 cells/mL were added in 50 μL aliquots to all wells. Following a 30-minute incubation, 50 μL of TSB, inoculated with 5×10^5 CFU/mL, was added to all wells, and plates were incubated overnight at 37° C. Following overnight incubation at 37° C., the OD600 was measured (values of less than 0.1 were considered sterilized). To assess bacterial growth in the assays with RBC, the OD600 was measured after a second day inoculation with 10 μL of solution from the original plate added to 100 μL of sterile TSB followed by overnight incubation.
(§3) MIC values were reported in μM peptide against gram-negative E. coli (EC), P. aeruginosa (PA), and gram-positive S. aureus (SA). The two columns under each organism are for assays performed in the absence (−) and presence (+) of 1×10^9 human RBC/ml. “>30” means that sterilization was not observed at 30 μM, the highest concentration tested. The column marked “hemolysis” is the fractional hemolysis of 1×10^8 human RBC/ml at 100 μM peptide determined from measurements of serially diluted peptide, starting from 100 μM. The column marked “EC 50” contains the concentration of peptide that kills 50% of WI-38 human fibroblast cells assayed by entry of SYTOX™ Green DNA binding dye.

[2] = system: E. coli; details: for MIC in Broth Dilution, E. coli, RBC −: absence of RBC; for MIC in Broth Dilution, E. coli, RBC − / MIC in Broth Dilution, E. coli, RBC +: Table 3; for MIC, E. coli, No RBC / MIC, E. coli, 10^9 cells/ml RBC: Table 2; for MIC in Broth Dilution, E. coli, RBC +: presence of 1×10^9 human RBC/ml; for MIC, E. coli, 10^9 cells/ml RBC: with 10^9 human RBC/ml
Description: as §1, §2, §3

[3] = system: human RBCs; assay: Hemolysis of human RBCs
Description: as §1
Peptide was serially diluted in PBS starting at a concentration of 100 μM. The final volume of peptide in each well was 50 μL. To each well, 50 μL of RBCs in PBS at 2×10^8 cells/mL was added. As a positive lysis control, 1% triton was used. The mixtures were incubated at 37° C. for 1 hour, after which they were centrifuged at 1000 g for 5 minutes. After centrifugation, 10 μL of supernatant was transferred to 90 μL of DI H2O in a fresh 96-well plate. The absorbance of released hemoglobin at 410 nm was recorded and the fractional hemolysis was calculated based on the 100% and 0% lysis controls.
as §3

Row | Structure (SMILES) | MIC in Broth Dilution, S. Aureus, RBC − [1] [µM] | MIC, S. aureus, No RBC [1] [µM] | MIC in Broth Dilution, S. Aureus, RBC + [1] [µM] | MIC, S. aureus, 10^9 cells/ml RBC [1] [μM] | MIC in Broth Dilution, E. coli, RBC − [2] [µM] | MIC, E. coli, No RBC [2] [µM] | MIC in Broth Dilution, E. coli, RBC + [2] [µM] | MIC, E. coli, 10^9 cells/ml RBC [2] [μM] | Hemolysis at 100 μM [3]
1 | CC(C)C[C@@H](NC(=O)[C@@H](CCCNC(=N)N)NC(=O)[C@@H](CCCNC(=N)N)NC(=O)[C@@H](Cc1c[nH]c2ccccc12)NC(=O)[C@@H](CCCNC(=N)N)NC(=O)[C@H](N)CCCNC(=N)N)C(=O)N[C@H](C)C(=O)N[C@H](Cc1ccccc1)C(=O)N[C@H](C)C(=O)N[C@H](Cc1ccccc1)C(=O)N[C@H](CCCNC(=N)N)C(=O)N[C@H](CCCNC(=N)N)C(N)=O [D-CONGA-ΔA4, rrwrrlafafrr (All D)] (H-[dR][dR][dW][dR][dR][dL][dA][dF][dA][dF][dR][dR]-NH2) | 3.2 (≈ 5.41 µg/mL) | 3.2 (≈ 5.41 µg/mL) | 2.3 | 2.3 | 1.6 (≈ 2.7 µg/mL) | 1.6 (≈ 2.7 µg/mL) | 2.8 | 2.8 | 0.02
2 | CC(C)C[C@@H](NC(=O)[C@@H](CCCNC(=N)N)NC(=O)[C@@H](CCCNC(=N)N)NC(=O)[C@@H](C)NC(=O)[C@@H](Cc1c[nH]c2ccccc12)NC(=O)[C@@H](CCCNC(=N)N)NC(=O)[C@H](N)CCCNC(=N)N)C(=O)N[C@H](C)C(=O)N[C@H](Cc1ccccc1)C(=O)N[C@H](C)C(=O)N[C@H](Cc1ccccc1)C(=O)N[C@H](CCCNC(=N)N)C(N)=O [D-CONGA-ΔR13, rrwarrlafafr (All D)] (H-[dR][dR][dW][dA][dR][dR][dL][dA][dF][dA][dF][dR]-NH2) | 27.1 (≈ 43.5 µg/mL) | 27 (≈ 43.3 µg/mL) | >30 | 30 | 0.9 (≈ 1.44 µg/mL) | 0.9 (≈ 1.44 µg/mL) | 0.6 | 0.6 | 0.03
3 | CC(C)C[C@@H](NC(=O)[C@@H](CCCNC(=N)N)NC(=O)[C@H](CCCNC(=N)N)NC(=O)[C@@H](C)NC(=O)[C@@H](Cc1c[nH]c2ccccc12)NC(=O)[C@@H](CCCNC(=N)N)NC(=O)[C@H](N)CCCNC(=N)N)C(=O)N[C@H](C)C(=O)N[C@H](Cc1ccccc1)C(=O)N[C@@H](C)C(=O)N[C@H](Cc1ccccc1)C(=O)N[C@H](CCCNC(=N)N)C(=O)N[C@H](CCCNC(=N)N)C(N)=O [D-CONGA-L(R5, A10), rrwaRrlafAfrr] (H-[dR][dR][dW][dA]R[dR][dL][dA][dF]A[dF][dR][dR]-NH2) | >30 | 30 (≈ 52.8 µg/mL) | >30 | 30 | 1.4 (≈ 2.47 µg/mL) | 1.4 (≈ 2.47 µg/mL) | 1.4 | 1.4 | 0.04
4 | CC(C)C[C@@H](NC(=O)CNC(=O)[C@@H](CCCNC(=N)N)NC(=O)[C@@H](CCCNC(=N)N)NC(=O)[C@@H](C)NC(=O)[C@@H](Cc1c[nH]c2ccccc12)NC(=O)[C@@H](CCCNC(=N)N)NC(=O)[C@H](N)CCCNC(=N)N)C(=O)N[C@H](C)C(=O)N[C@H](Cc1ccccc1)C(=O)N[C@H](C)C(=O)N[C@H](Cc1ccccc1)C(=O)N[C@H](CCCNC(=N)N)C(=O)N[C@H](CCCNC(=N)N)C(N)=O [D-CONGA-G7, rrwarrglafafrr (All D)] (H-[dR][dR][dW][dA][dR][dR]G[dL][dA][dF][dA][dF][dR][dR]-NH2) | 6.4 (≈ 11.6 µg/mL) | 6.4 (≈ 11.6 µg/mL) | 6.9 | 6.9 | 1.3 (≈ 2.36 µg/mL) | 1.3 (≈ 2.36 µg/mL) | 1.4 | 1.4 | 0.07
5 | CC(C)C[C@@H](NC(=O)[C@@H](CCCNC(=N)N)NC(=O)[C@@H](CCCNC(=N)N)NC(=O)[C@@H](C)NC(=O)[C@@H](Cc1c[nH]c2ccccc12)NC(=O)[C@@H](CCCNC(=N)N)NC(=O)[C@H](N)CCCNC(=N)N)C(=O)N[C@H](C)C(=O)N[C@H](Cc1ccccc1)C(=O)N[C@H](Cc1ccccc1)C(=O)N[C@H](CCCNC(=N)N)C(=O)N[C@H](CCCNC(=N)N)C(N)=O [D-CONGA-ΔA10, rrwarrlaffrr (All D)] (H-[dR][dR][dW][dA][dR][dR][dL][dA][dF][dF][dR][dR]-NH2) | 23.5 (≈ 39.7 µg/mL) | 24 (≈ 40.6 µg/mL) | 19 | 19 | 0.7 (≈ 1.18 µg/mL) | 0.7 (≈ 1.18 µg/mL) | 1.3 | 1.3 | 0.02
6 | CC(C)C[C@@H](NC(=O)[C@@H](CCCCNC(=N)N)NC(=O)[C@@H](CCCCNC(=N)N)NC(=O)[C@@H](C)NC(=O)[C@@H](Cc1c[nH]c2ccccc12)NC(=O)[C@@H](CCCNC(=N)N)NC(=O)[C@H](N)CCCNC(=N)N)C(=O)N[C@H](C)C(=O)N[C@H](Cc1ccccc1)C(=O)N[C@H](C)C(=O)N[C@H](Cc1ccccc1)C(=O)N[C@H](CCCNC(=N)N)C(=O)N[C@H](CCCNC(=N)N)C(N)=O [D-CONGA-HomoR, rrwa (homo r, homo r)lafafrr] (H-[dR][dR][dW][dA][d(hArg)][d(hArg)][dL][dA][dF][dA][dF][dR][dR]-NH2) | 1.7 (≈ 3.04 µg/mL) | 1.7 (≈ 3.04 µg/mL) | 2.5 | 2.5 | 1.3 (≈ 2.33 µg/mL) | 1.3 (≈ 2.33 µg/mL) | 2.2 | 2.2 | 0.06
7 | CC(C)C[C@@H](NC(=O)[C@@H](CCCNC(=N)N)NC(=O)[C@H](N)CCCNC(=N)N)C(=O)N[C@H](C)C(=O)N[C@H](Cc1ccccc1)C(=O)N[C@H](C)C(=O)N[C@H](Cc1ccccc1)C(=O)N[C@H](Cc1c[nH]c2ccccc12)C(=O)N[C@H](C)C(=O)N[C@H](CCCNC(=N)N)C(=O)N[C@H](CCCNC(=N)N)C(=O)N[C@H](CCCNC(=N)N)C(=O)N[C@H](CCCNC(=N)N)C(N)=O [D-CONGA-FLIP, rrlafafwarrrr (All D)] (H-[dR][dR][dL][dA][dF][dA][dF][dW][dA][dR][dR][dR][dR]-NH2) | 1.7 (≈ 2.99 µg/mL) | 1.7 (≈ 2.99 µg/mL) | 3.7 | 3.7 | 1 (≈ 1.76 µg/mL) | 1 (≈ 1.76 µg/mL) | 1.5 | 1.5 | 0.05
8 | CC(C)C[C@H](NC(=O)[C@H](CCCNC(=N)N)NC(=O)[C@H](CCCNC(=N)N)NC(=O)[C@H](C)NC(=O)[C@H](Cc1c[nH]c2ccccc12)NC(=O)[C@H](CCCNC(=N)N)NC(=O)[C@H](N)CCCNC(=N)N)C(=O)N[C@@H](C)C(=O)N[C@@H](Cc1ccccc1)C(=O)N[C@@H](C)C(=O)N[C@@H](Cc1ccccc1)C(=O)N[C@@H](CCCNC(=N)N)C(=O)N[C@H](CCCNC(=N)N)C(N)=O [L-CONGA-D(R1, R13)] (H-[dR]RWARRLAFAFR[dR]-NH2) | >30 | 30 (≈ 52.8 µg/mL) | >30 | 30 | 20 (≈ 35.2 µg/mL) | 20 (≈ 35.2 µg/mL) | 26.2 | 26.2 | 0.01
